Data reported in patent US9656955B2, “Pyrrolidine derivatives, pharmaceutical compositions containing them, and their use in therapy” (AbbVie Deutschland GmbH & Co. KG, priority 2013, dated 2017).

Target: human GlyT1c transporter (Homo sapiens (Human), UniProt P48067)
Test: Radioligand binding assays using recombinant CHO cell membranes expressing human GlyT1
Conditions: radioligand binding, human GlyT1c transporter-expressing CHO cell membranes

human GlyT1c transporter, sequence (P48067 whole entry): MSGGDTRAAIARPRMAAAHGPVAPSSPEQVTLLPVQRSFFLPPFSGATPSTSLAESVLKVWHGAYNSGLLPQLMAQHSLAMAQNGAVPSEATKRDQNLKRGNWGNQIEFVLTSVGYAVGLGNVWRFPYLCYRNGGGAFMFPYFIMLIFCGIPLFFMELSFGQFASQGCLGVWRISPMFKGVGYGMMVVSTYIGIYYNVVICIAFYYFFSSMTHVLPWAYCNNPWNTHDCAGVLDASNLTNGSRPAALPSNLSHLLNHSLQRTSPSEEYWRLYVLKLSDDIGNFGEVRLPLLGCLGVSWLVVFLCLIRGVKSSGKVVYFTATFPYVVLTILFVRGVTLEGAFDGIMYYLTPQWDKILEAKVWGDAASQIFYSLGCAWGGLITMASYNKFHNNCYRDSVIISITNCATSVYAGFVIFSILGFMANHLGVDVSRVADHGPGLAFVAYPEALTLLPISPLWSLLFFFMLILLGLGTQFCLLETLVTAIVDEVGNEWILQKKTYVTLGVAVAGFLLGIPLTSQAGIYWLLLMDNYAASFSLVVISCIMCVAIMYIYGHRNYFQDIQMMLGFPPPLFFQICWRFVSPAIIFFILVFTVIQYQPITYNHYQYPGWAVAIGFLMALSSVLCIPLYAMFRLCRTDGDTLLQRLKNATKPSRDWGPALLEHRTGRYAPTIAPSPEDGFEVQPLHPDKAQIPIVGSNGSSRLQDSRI

Row | SMILES | Ki [µM]
1 | Cn1cnc(S(=O)(=O)N2CC(c3ccc(F)cc3)C(O)(Cc3ccccc3)C2)c1 (stereo not shown) [Example 382, 3-benzyl-4-(4-fluorophenyl)-1-[(1-methyl-1H-imidazol-4-yl)sulfonyl]pyrrolidin-3-ol] | ≤ 0.1
2 | Cn1cnc(S(=O)(=O)N2CC(Nc3nnccc3C(F)(F)F)C(c3ccc(F)cc3)C2)c1 (stereo not shown) [Example 384, N-{4-(4-fluorophenyl)-1-[(1-methyl-1H-imidazol-4-yl)sulfonyl]pyrrolidin-3-yl}-4-(trifluoromethyl)pyridazin-3-amine] | ≤ 10
3 | Cn1cnc(S(=O)(=O)N2C[C@@H](Nc3cccc(C#N)c3)[C@H](c3ccc(F)cc3)C2)c1 [Example 389, 3-({(3S,4R)-4-(4-fluorophenyl)-1-[(1-methyl-1H-imidazol-4-yl)sulfonyl]pyrrolidin-3-yl}amino)benzonitrile] | ≤ 10
4 | Cn1cnc(S(=O)(=O)N2C[C@H](NCc3ccc(C(F)(F)F)cc3)[C@@H](c3ccccc3)C2)c1 [Example 398, (3R,4S)-1-[(1-methyl-1H-imidazol-4-yl)sulfonyl]-4-phenyl-N-[4-(trifluoromethyl)benzyl]pyrrolidin-3-amine] | ≤ 0.01
5 | Cn1cnc(S(=O)(=O)N2C[C@H](Nc3cnc(C4CCC4)cn3)[C@@H](c3ccccc3)C2)c1 [Example 411, 5-cyclobutyl-N-{(3R,4S)-1-[(1-methyl-1H-imidazol-4-yl)sulfonyl]-4-phenylpyrrolidin-3-yl}pyrazin-2-amine] | ≤ 10
6 | Cn1cnc(S(=O)(=O)N2C[C@H](NC(=O)c3cnc(C(F)(F)F)cn3)[C@@H](c3ccccc3)C2)c1 [Example 414, N-{(3R,4S)-1-[(1-methyl-1H-imidazol-4-yl)sulfonyl]-4-phenylpyrrolidin-3-yl}-5-(trifluoromethyl)pyrazine-2-carboxamide] | ≤ 10
7 | Cn1cnc(S(=O)(=O)N2C[C@H](Nc3ccc(F)c(Cl)c3)[C@@H](c3ccccc3)C2)c1 [Example 417, (3R,4S)—N-(3-chloro-4-fluorophenyl)-1-[(1-methyl-1H-imidazol-4-yl)sulfonyl]-4-phenylpyrrolidin-3-amine] | ≤ 0.01
8 | Cn1cnc(S(=O)(=O)N2C[C@H](NC(=O)c3ccc(Cl)nn3)[C@@H](c3ccccc3)C2)c1 [Example 419, 6-chloro-N-{(3R,4S)-1-[(1-methyl-1H-imidazol-4-yl)sulfonyl]-4-phenylpyrrolidin-3-yl}pyridazine-3-carboxamide] | ≥ 10
9 | Cn1cnc(S(=O)(=O)N2C[C@H](Nc3ccnc(N4CCOCC4)n3)[C@@H](c3ccccc3)C2)c1 [Example 420, N-{(3R,4S)-1-[(1-methyl-1H-imidazol-4-yl)sulfonyl]-4-phenylpyrrolidin-3-yl}-2-(morpholin-4-yl)pyrimidin-4-amine] | ≤ 10
10 | CCCc1ccc(CN[C@H]2CN(S(=O)(=O)c3cn(C)cn3)C[C@@H]2c2ccccc2)o1 [Example 428, (3R,4S)-1-[(1-methyl-1H-imidazol-4-yl)sulfonyl]-4-phenyl-N-[(5-propylfuran-2-yl)methyl]pyrrolidin-3-amine] | ≤ 0.1
11 | CC(C)N1CCC(CN[C@H]2CN(S(=O)(=O)c3cn(C)cn3)C[C@@H]2c2ccccc2)CC1 [Example 459, (3R,4S)-1-[(1-methyl-1H-imidazol-4-yl)sulfonyl]-4-phenyl-N-{[1-(propan-2-yl)piperidin-4-yl]methyl}pyrrolidin-3-amine] | ≤ 10
12 | Cn1cnc(S(=O)(=O)N2C[C@H](NCc3nc(-c4ccc(F)cc4)cs3)[C@@H](c3ccccc3)C2)c1 [Example 460, (3R,4S)—N-{[4-(4-fluorophenyl)-1,3-thiazol-2-yl]methyl}-1-[(1-methyl-1H-imidazol-4-yl)sulfonyl]-4-phenylpyrrolidin-3-amine] | ≤ 10
13 | Cc1ccc(CN[C@H]2CN(S(=O)(=O)c3cn(C)cn3)C[C@@H]2c2ccccc2)s1 [Example 462, (3R,4S)-1-[(1-methyl-1H-imidazol-4-yl)sulfonyl]-N-[(5-methylthiophen-2-yl)methyl]-4-phenylpyrrolidin-3-amine] | ≤ 0.1
14 | Cn1cc(S(=O)(=O)N2CC(Nc3ccc(F)c(F)c3)C(c3ccccc3)C2)c(C(F)(F)F)n1 (stereo not shown) [Example 476, N-(3,4-difluorophenyl)-1-{[1-methyl-3-(trifluoromethyl)-1H-pyrazol-4-yl]sulfonyl}-4-phenylpyrrolidin-3-amine] | ≤ 10
15 | CC1(C)C(=O)Nc2ccc(S(=O)(=O)N3CC(Nc4ccc(F)c(F)c4)C(c4ccccc4)C3)cc21 (stereo not shown) [Example 478, 5-({3-[(3,4-difluorophenyl)amino]-4-phenylpyrrolidin-1-yl}sulfonyl)-3,3-dimethyl-1,3-dihydro-2H-indol-2-one] | ≤ 10
16 | Cc1nn(C2CCCC2)cc1S(=O)(=O)N1CC(Nc2ccc(F)c(F)c2)C(c2ccccc2)C1 (stereo not shown) [Example 479, 1-[(1-cyclopentyl-3-methyl-1H-pyrazol-4-yl)sulfonyl]-N-(3,4-difluorophenyl)-4-phenylpyrrolidin-3-amine] | > 10
17 | Cc1cc(S(=O)(=O)N2CC(Nc3ccc(F)c(F)c3)C(c3ccccc3)C2)n(C)n1 (stereo not shown) [Example 482, N-(3,4-difluorophenyl)-1-[(1,3-dimethyl-1H-pyrazol-5-yl)sulfonyl]-4-phenylpyrrolidin-3-amine] | ≤ 10

Row | SMILES | Ki [µM]
18 | Cc1cc(S(=O)(=O)N2CC(Nc3ccc(F)c(F)c3)C(c3ccccc3)C2)c(C)o1 (stereo not shown) [Example 488, N-(3,4-difluorophenyl)-1-[(2,5-dimethylfuran-3-yl)sulfonyl]-4-phenylpyrrolidin-3-amine] | ≤ 10
19 | COC(=O)c1sccc1S(=O)(=O)N1CC(Nc2ccc(F)c(F)c2)C(c2ccccc2)C1 (stereo not shown) [Example 489, methyl 3-({3-[(3,4-difluorophenyl)amino]-4-phenylpyrrolidin-1-yl}sulfonyl)thiophene-2-carboxylate] | ≤ 10
20 | Cn1ccc(S(=O)(=O)N2CC(Nc3ccc(F)c(F)c3)C(c3ccccc3)C2)n1 (stereo not shown) [Example 502, N-(3,4-difluorophenyl)-1-[(1-methyl-1H-pyrazol-3-yl)sulfonyl]-4-phenylpyrrolidin-3-amine] | ≤ 10
21 | COC(=O)c1ccc(S(=O)(=O)N2CC(Nc3ccc(F)c(F)c3)C(c3ccccc3)C2)n1C (stereo not shown) [Example 504, methyl 5-({3-[(3,4-difluorophenyl)amino]-4-phenylpyrrolidin-1-yl}sulfonyl)-1-methyl-1H-pyrrole-2-carboxylate] | ≤ 10
22 | Cc1nn(C)c(C)c1S(=O)(=O)N1CC(Nc2ccc(F)c(F)c2)C(c2ccccc2)C1 (stereo not shown) [Example 508, N-(3,4-difluorophenyl)-4-phenyl-1-[(1,3,5-trimethyl-1H-pyrazol-4-yl)sulfonyl]pyrrolidin-3-amine] | ≤ 10
23 | O=S(=O)(C1CCC1)N1CC(Nc2ccc(F)c(F)c2)C(c2ccccc2)C1 (stereo not shown) [Example 509, 1-(cyclobutylsulfonyl)-N-(3,4-difluorophenyl)-4-phenylpyrrolidin-3-amine] | ≤ 10
24 | O=S(=O)(c1ccc(Cl)s1)N1CC(Nc2ccc(F)c(F)c2)C(c2ccccc2)C1 (stereo not shown) [Example 511, 1-[(5-chlorothiophen-2-yl)sulfonyl]-N-(3,4-difluorophenyl)-4-phenylpyrrolidin-3-amine] | ≤ 10
25 | Cn1nccc1S(=O)(=O)N1CC(Nc2ccc(F)c(F)c2)C(c2ccccc2)C1 (stereo not shown) [Example 516, N-(3,4-difluorophenyl)-1-[(1-methyl-1H-pyrazol-5-yl)sulfonyl]-4-phenylpyrrolidin-3-amine] | ≤ 10
26 | Cn1cnc(S(=O)(=O)N2C[C@H](Nc3ccc(Cl)c(C(F)(F)F)c3)[C@@H](c3ccc(F)cc3)C2)c1 [Example 540, (3R,4S)—N-[4-chloro-3-(trifluoromethyl)phenyl]-4-(4-fluorophenyl)-1-[(1-methyl-1H-imidazol-4-yl)sulfonyl]pyrrolidin-3-amine] | ≤ 0.1
27 | CC(C)COC(=O)N[C@H]1CN(S(=O)(=O)c2cn(C)cn2)C[C@@H]1c1ccccc1 [Example 543, 2-methylpropyl {(3R,4S)-1-[(1-methyl-1H-imidazol-4-yl)sulfonyl]-4-phenylpyrrolidin-3-yl}carbamate] | ≤ 10
28 | CCCCCCN[C@H]1CN(S(=O)(=O)c2cn(C)cn2)C[C@@H]1c1ccccc1 [Example 548, (3R,4S)—N-hexyl-1-[(1-methyl-1H-imidazol-4-yl)sulfonyl]-4-phenylpyrrolidin-3-amine] | ≤ 0.01
29 | Cn1cnc(S(=O)(=O)N2C[C@H](NCC3CCOC(C)(C)C3)[C@@H](c3ccccc3)C2)c1 (stereo partly drawn) [Example 557, (3R,4S)—N-[(2,2-dimethyltetrahydro-2H-pyran-4-yl)methyl]-1-[(1-methyl-1H-imidazol-4-yl)sulfonyl]-4-phenylpyrrolidin-3-amine] | ≤ 10
30 | Cn1cnc(S(=O)(=O)N2C[C@H](NCc3cccc4cncn34)[C@@H](c3ccccc3)C2)c1 [Example 560, (3R,4S)—N-(imidazo[1,5-a]pyridin-5-ylmethyl)-1-[(1-methyl-1H-imidazol-4-yl)sulfonyl]-4-phenylpyrrolidin-3-amine] | ≥ 10
31 | Cn1cnc(S(=O)(=O)N2C[C@H](NCc3csc(Cl)n3)[C@@H](c3ccccc3)C2)c1 [Example 562, (3R,4S)—N-[(2-chloro-1,3-thiazol-4-yl)methyl]-1-[(1-methyl-1H-imidazol-4-yl)sulfonyl]-4-phenylpyrrolidin-3-amine] | ≤ 10
32 | Cc1cccc2ncc(CN[C@H]3CN(S(=O)(=O)c4cn(C)cn4)C[C@@H]3c3ccccc3)n12 [Example 563, (3R,4S)-1-[(1-methyl-1H-imidazol-4-yl)sulfonyl]-N-[(5-methylimidazo[1,2-a]pyridin-3-yl)methyl]-4-phenylpyrrolidin-3-amine] | ≤ 10
33 | Cn1cnc(S(=O)(=O)N2C[C@H](NCCCC3CC3)[C@@H](c3ccccc3)C2)c1 [Example 573, (3R,4S)—N-(3-cyclopropylpropyl)-1-[(1-methyl-1H-imidazol-4-yl)sulfonyl]-4-phenylpyrrolidin-3-amine] | ≤ 0.1
34 | Cc1cc(N[C@H]2CN(S(=O)(=O)c3cn(C)cn3)C[C@@H]2c2ccccc2)ncc1F [Example 574, 5-fluoro-4-methyl-N-{(3R,4S)-1-[(1-methyl-1H-imidazol-4-yl)sulfonyl]-4-phenylpyrrolidin-3-yl}pyridin-2-amine] | ≤ 0.1
